The values below come from patent US20210363563A1, “MEDIUM FOR THE SPECIFIC DETECTION OF RESISTANT MICROORGANISMS” (BIOMERIEUX, priority 2005, published 2021).

The subject of test [1] is wild-type strains of the enterobacteria tested. Description: Antibiotic concentration range on CPS ID 3 chromogenic agar: inhibition of wild-type strains. Format: cell-based. The note with it: CPS ID 3 agar, 37° C., aerobic atmosphere. An excerpt:
(§1) In the context of the manipulations carried out, for evaluating the activity of the antibiotics active on gram-negative bacilli, various species of enterobacteria (Escherichia coli, Enterobacter aerogenes, Klebsiella pneumoniae, Serratia marcescens, Proteus mirabilis) and of nonfermenting gram-negative bacilli (Pseudomonas aeruginosa), capable of producing ESBLs, were used. ESBL-positive strains, high level cephalosporinase-producing strains (HL Case) and wild-type strains are compared in the trials.
(§2) The medium used was a CPS ID3 medium (reference 43541) also comprising at least one antibiotic and at least one resistance mechanism inhibitor.
(§3) Osmosed water is added and the whole is homogenized and melted in a waterbath at 100° C. The base medium is dispensed into flasks, the number of which corresponds to the total number of media to be tested during the process. The flasks are then autoclaved for 15 min at 121° C. The media are brought back to and kept molten at 55±3° C. in a waterbath, in order to sterilely add the thermolabile additives (sterilized beforehand by filtration through 0.22 μm). The media are then poured into biplates 90 mm in diameter (i.e. approximately 9.5 ml/half-plate), and left on a flat surface so that they can set. The surface of the agars is then dried under a laminar flow hood for 30 min.
(§4) An inoculum of 0.5 McF is prepared, in physiological saline, from 24-hour precultures at 36° C.±2° C. in an aerobic atmosphere on TSA medium, and then 1 μl of this suspension is transferred into 5 ml of physiological saline. In order to obtain a sufficient number of isolated colonies, a range of inocula made it possible to determine that the optimal amount of bacteria to be inoculated was from 10^3 to 10^4 CFU/ml. The inoculation is carried out directly on the two half-agars using a sterile swab. The cultures are then incubated at 37° C. in an aerobic atmosphere.
(§5) 4. Reading of media: the readings are carried out at 18 hours (±30 min), 24 h (±1h) and 48 h (±4 h). The density and the size of the colonies, and the appearance, the color and the coloration intensities of the mass and of the isolated colonies were observed, according to the following reading scales 1 to 3: 0: no growth; 0.1: trace of growth; 0.25: colonies of diameter<0.5 mm; 0.5: colonies of 0.5 mm in diameter; 0.75: 0.5 mm<diameter<1 mm; 1: colonies of 1 mm in diameter; 1.25: 1 mm<diameter<1.5 mm; 1.5: colonies 1.5 mm in diameter; 2: colonies 2 mm in diameter; 3: colonies of diameter>2 mm.
(§6) The 5 antibiotics recommended by the NCCLS (National Committee for Clinical Laboratory Standards) were tested. For each product tested, a range was prepared in order to determine the concentrations that make it possible to inhibit the wild-type strains of the enterobacteria tested, without affecting the growth of the ESBL-positive strains or the HL Case-positive strains.
(§7) The low value corresponds to the minimum concentration of the antibiotic required to inhibit the wild-type strains of the enterobacteria tested. The high value corresponds to the maximum concentration of the antibiotic that can be used without affecting the growth of the ESBL-positive strains tested.

Another test relates to ESBL-positive strains. Description: Antibiotic concentration range on CPS ID 3 chromogenic agar: growth of ESBL-positive strains. Type of test: cell-based. The note with it: CPS ID 3 agar, 37° C., aerobic atmosphere.
From the text: as §1, §2, §3, §4, §5, §6, §7

Test [2] relates to E. casseliflavus and E. gallinarum strains (natural resistances). Description: Example 4: Columbia chromogenic media with vancomycin, naturally resistant enterococci. Type of test: cell-based, Enterococcus casseliflavus, Enterococcus gallinarum. To be noted: vancomycin 8 mg/l. Here is the method: In the context of the manipulations carried out, for evaluating the activity of antibiotics active on enterococci, various species of Enterococcus (Enterococccus faecalis, Enterococcus faecium, Enterococcus casseliflavus, Enterococcus gallinarum,) were used. In the assays, strains resistant to glycopeptides (VRE) and wild-type strains are compared.
The media used were a Columbia medium (51026), also comprising: • 5-bromo-4-chloro-3-indolyl-N-methyl-α-D-glucopyranoside (GreenA-α-Glu) at 150 mg/l, • 6-chloro-3-indolyl-β-glucopyranoside (Rose-b-Glu [Pink-b-Glu]) at 200 mg/l, or: • 5-bromo-4-chloro-3-indolyl-N-methyl-α-D-glucopyranoside (GreenA-α-Glu) at 150 mg/l, • alizarine-β-galactopyranoside at 50 mg/l • and vancomycin at 8 mg/l, • an amphotericin B at 4 mg/l, • and colistine at 2 mg/l, • and aztreonam at 32 mg/l.
Osmosed water is added and the whole is homogenized and melted in a waterbath at 100° C. The two basic media are dispensed into flasks. The flasks are then autoclaved for 15 min at 121° C. The media are brought back to and kept molten at 55±3° C. in a waterbath, in order to sterilely add the thermolabile additives (sterilized beforehand by filtration through 0.22 μm). The media are then poured into plates 90 mm in diameter and left on a flat surface so that they can set. The surface of the agars is then dried under a laminar flow hood for 30 min. […]

The test system of test [3] is ESBL-positive enterobacterial strains. Format: cell-based, enterobacteria. The note with it: in the presence of cefotaxime.
Method: 4. Reading of media: the readings are carried out at 18 hours (±30 min), 24 h (±1h) and 48 h (±4 h). The density and the size of the colonies, and the appearance, the color and the coloration intensities of the mass and of the isolated colonies were observed, according to the following reading scales 1 to 3: 0: no growth; 0.1: trace of growth; 0.25: colonies of diameter<0.5 mm; 0.5: colonies of 0.5 mm in diameter; 0.75: 0.5 mm<diameter<1 mm; 1: colonies of 1 mm in diameter; 1.25: 1 mm<diameter<1.5 mm; 1.5: colonies 1.5 mm in diameter; 2: colonies 2 mm in diameter; 3: colonies of diameter>2 mm. […]
Test [4] deals with wild-type strains of P. aeruginosa. In words: Antibiotic concentration range on CPS ID 3: complete inhibition of wild-type P. aeruginosa. Format: cell-based, Pseudomonas aeruginosa. The note with it: CPS ID 3 agar.
From the text: as §1
Osmosed water is added and the whole is homogenized and melted in a waterbath at 100° C. The base medium is dispensed into flasks, the number of which corresponds to the total number of media to be tested during the process. The flasks are then autoclaved for 15 min at 121° C. […]
as §5, with “mm. […]” for “mm.”

As for `CO/N=C(\C(=O)N[C@@H]1C(=O)N2C(C(=O)O)=C(COC(C)=O)CS[C@H]12)c1csc(N)n1` [Cefotaxime, cefotaxime], the “Low value: minimum concentration of the antibiotic required to inhibit the wild-type strains of the enterobacteria tested” value in test [1] came out at 1 mg/L. In the test on ESBL-positive strains, the “High value: maximum concentration of the antibiotic that can be used without affecting the growth of the ESBL-positive strains tested” value was found to be 2 mg/L.
On to `CN[C@H](CC(C)C)C(=O)N[C@H]1C(=O)N[C@@H](CC(N)=O)C(=O)N[C@H]2C(=O)N[C@H]3C(=O)N[C@H](C(=O)N[C@H](C(=O)O)c4cc(O)cc(O)c4-c4cc3ccc4O)[C@H](O)c3ccc(c(Cl)c3)Oc3cc2cc(c3O[C@@H]2O[C@H](CO)[C@@H](O)[C@H](O)[C@H]2O[C@H]2C[C@](C)(N)[C@H](O)[C@H](C)O2)Oc2ccc(cc2Cl)[C@H]1O` [vancomycin], for which the “effect on E. casseliflavus and E. gallinarum strains” value is “inhibited” in test [2] (medium with α-glucosidase and β-galactosidase substrates); “inhibited” in test [2] (medium with α-glucosidase and β-glucosidase substrates).
`COCC1=C(C(=O)O)N2C(=O)[C@@H](NC(=O)/C(=N\OC)c3csc(N)n3)[C@H]2SC1` [Cefpodoxime, cefpodoxime]: the “Low value: minimum concentration of the antibiotic required to inhibit the wild-type strains of the enterobacteria tested” value in test [1] was 2 mg/L. In addition, the “High value: maximum concentration of the antibiotic that can be used without affecting the growth of the ESBL-positive strains tested” value in the test with ESBL-positive strains stood at 10 mg/L.
As for `O=C(O)[C@H]1/C(=C/CO)O[C@@H]2CC(=O)N21` [clavulanic acid], the “relative effectiveness among the β-lactamase inhibitors (BLI) tested” value in test [3] was “most effective BLI”.
Consider `CC(C)(O/N=C(\C(=O)N[C@@H]1C(=O)N2C(C(=O)[O-])=C(C[n+]3ccccc3)CS[C@H]12)c1csc(N)n1)C(=O)O` [Ceftazidime, ceftazidime], for which the “Low value: minimum concentration of the antibiotic required to inhibit the wild-type strains of the enterobacteria tested” value in test [1] was 2 mg/L. In the test with ESBL-positive strains, the “High value: maximum concentration of the antibiotic that can be used without affecting the growth of the ESBL-positive strains tested” value stood at 2.5 mg/L. Also, in test [4], the “minimum concentration for complete inhibition of wild-type strains of P. aeruginosa (limiting value)” value was 1.5 mg/L.
Turning to `C[C@H]1[C@H](NC(=O)/C(=N\OC(C)(C)C(=O)O)c2csc(N)n2)C(=O)N1S(=O)(=O)O` [Aztreonam, aztreonam], the “Low value: minimum concentration of the antibiotic required to inhibit the wild-type strains of the enterobacteria tested” value in test [1] was 1 mg/L. The “High value: maximum concentration of the antibiotic that can be used without affecting the growth of the ESBL-positive strains tested” value with ESBL-positive strains was 1.5 mg/L.
`CO/N=C(\C(=O)N[C@@H]1C(=O)N2C(C(=O)O)=C(CSc3nc(=O)c(=O)[nH]n3C)CS[C@H]12)c1csc(N)n1` [Ceftriaxone, ceftriaxone]: the “Low value: minimum concentration of the antibiotic required to inhibit the wild-type strains of the enterobacteria tested” value in test [1] is 1 mg/L. The “High value: maximum concentration of the antibiotic that can be used without affecting the growth of the ESBL-positive strains tested” value in the test with ESBL-positive strains was determined as 2.5 mg/L.
